Measurements: patent US20260356856A1, “KRAS G12S AND G12C INHIBITORS” (MIRATI THERAPEUTICS, INC., priority 2023, published 2026)

Assays:
KRas WT = target: T1, KRas WT (Homo sapiens, UniProt P01116); assay: KRas binding assay, TR-FRET displacement of Cy5 labelled tracer; conditions: 60-minute incubation at room temperature, 1% DMSO, pH 7.5
T1 construct: Biotinylated KRas (corresponding to amino acids 1-169, produced at Accelegan Inc.); biotin (biotinylated); purchased Accelegan Inc
In short: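 Biotinylated KRas (residues 1-169) was incubated with tracer, terbium-streptavidin and compound at 1% DMSO final in 50 mM HEPES pH 7.5 containing 5 mM MgCl2, 0.005% Tween-20 and 1 mM DTT. The plate was read after 60 min at room temperature, and percent-of-control data were fit to a 4-parameter IC50 equation.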

KRas G12C = target: T2, KRas G12C (Homo sapiens, UniProt P01116, G12C); assay: as above; conditions: 60-minute incubation at room temperature, 1% DMSO, pH 7.5
T2 construct: Biotinylated KRas (corresponding to amino acids 1-169, produced at Accelegan Inc.); biotin (biotinylated); purchased Accelegan Inc
In short: (§1)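 Displacement measured on KRas residues 1-169 (biotinylated, terbium-streptavidin labelled); 1 h, RT; 1% DMSO final; HEPES pH 7.5 / MgCl2 / Tween-20 / DTT. IC50: 4-parameter fit.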

KRas G12S = target: T3, KRas G12S (Homo sapiens, UniProt P01116, G12S); assay: as above; conditions: 60-minute incubation at room temperature, 1% DMSO, pH 7.5
T3 construct: Biotinylated KRas (corresponding to amino acids 1-169, produced at Accelegan Inc.); biotin (biotinylated); purchased Accelegan Inc
In short: as §1

[1] = target: T4, KRas-mediated phosphorylation of ERK in H358 cells (Homo sapiens, UniProt P01116, G12C); assay: Inhibition of KRas-mediated phosphorylation of ERK (HTRF), H358 cells; format: cell-based; conditions: HTRF pERK, 3 h incubation
T4 construct: pERK HTRF read-out

[2] = target: T5, KRas-mediated phosphorylation of ERK in MKN1 cells (Homo sapiens, UniProt P01116); assay: Inhibition of KRas-mediated phosphorylation of ERK (HTRF), MKN1 cells; format: cell-based; conditions: MKN1 cells (KRas WT); HTRF pERK; 3 h incubation
T5 construct: pERK HTRF read-out
Method: Inhibition of KRas Phosphorylation of ERK (HTRF) by Exemplary Compounds of Formula (Ia) or (Ib)
Cisbio HTRF Advanced pERK Assay Catalog #64AERPEH • Cells: MKN1, PSN1 • Procedure: • 1. Day 1: Seed 6,000 cells/well −25 μl/well in 384-well white solid bottom plate; RPM1_10% FBS. Incubate overnight at 37 °C/5% CO2. • 2.

[3] = target: T6, KRas-mediated phosphorylation of ERK in A549 cells (Homo sapiens, UniProt P01116, G12S); assay: Inhibition of KRas-mediated phosphorylation of ERK (HTRF), A549 cells; format: cell-based; conditions: HTRF pERK, 3 h incubation
T6 construct: pERK HTRF read-out
T6 sequence (P01116 1-188 isoform P01116-2 G12S): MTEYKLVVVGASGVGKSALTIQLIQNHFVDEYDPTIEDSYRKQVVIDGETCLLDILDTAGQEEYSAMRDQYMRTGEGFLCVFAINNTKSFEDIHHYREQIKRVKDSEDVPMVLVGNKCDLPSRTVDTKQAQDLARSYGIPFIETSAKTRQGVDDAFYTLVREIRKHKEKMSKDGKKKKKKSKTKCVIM

T2 sequence (P01116 1-169 isoform P01116-2 G12C): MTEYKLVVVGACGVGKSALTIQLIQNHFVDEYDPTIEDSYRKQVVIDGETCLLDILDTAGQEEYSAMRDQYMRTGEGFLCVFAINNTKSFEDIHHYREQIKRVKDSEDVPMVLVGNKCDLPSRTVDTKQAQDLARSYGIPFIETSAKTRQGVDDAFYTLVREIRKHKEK
T3 sequence (P01116 1-169 isoform P01116-2 G12S): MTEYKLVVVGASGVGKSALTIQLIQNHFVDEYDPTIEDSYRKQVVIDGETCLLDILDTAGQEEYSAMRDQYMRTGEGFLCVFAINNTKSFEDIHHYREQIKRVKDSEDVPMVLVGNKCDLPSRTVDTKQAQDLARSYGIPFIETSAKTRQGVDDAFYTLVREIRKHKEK
T5 sequence (P01116 1-188 isoform P01116-2): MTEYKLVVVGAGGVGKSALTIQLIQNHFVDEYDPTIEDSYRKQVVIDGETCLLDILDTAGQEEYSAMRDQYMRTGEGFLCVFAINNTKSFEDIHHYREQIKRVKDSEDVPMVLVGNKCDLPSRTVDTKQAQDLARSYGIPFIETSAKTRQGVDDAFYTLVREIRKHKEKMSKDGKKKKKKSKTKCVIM
T4 sequence (P01116 1-188 isoform P01116-2 G12C): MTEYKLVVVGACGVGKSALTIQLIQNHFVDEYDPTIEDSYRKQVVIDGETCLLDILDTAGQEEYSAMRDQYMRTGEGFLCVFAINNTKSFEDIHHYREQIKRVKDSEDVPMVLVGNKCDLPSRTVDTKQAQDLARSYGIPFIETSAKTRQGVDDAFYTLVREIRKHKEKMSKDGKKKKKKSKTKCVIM
T1 sequence (P01116 1-169 isoform P01116-2): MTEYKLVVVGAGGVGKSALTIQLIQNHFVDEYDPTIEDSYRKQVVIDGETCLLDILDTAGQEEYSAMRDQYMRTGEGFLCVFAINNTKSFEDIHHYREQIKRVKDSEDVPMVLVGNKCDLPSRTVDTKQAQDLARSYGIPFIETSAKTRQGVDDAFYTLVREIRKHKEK

Row | SMILES | IC50 (KRas WT) | IC50 (KRas G12C) | IC50 (KRas G12S) | IC50 [1] | IC50 [2] | IC50 [3]
1 | CC(=O)N(C)C(=O)C(C)CCN(C)c1nc(OC[C@@]23CCCN2C[C@H](F)C3)nc2c(F)c(-c3ccc(F)c4sc(N)c(C#N)c34)c(Cl)cc12 (stereo partly drawn) [Example 304, N-acetyl-4-((7-(2-amino-3-cyano-7-fluorobenzo[b]thiophen-4-yl)-6-chloro-8-fluoro-2-(((2R,7aS)-2-fluorotetrahydro-1H-pyrrolizin-7a(5H)-yl)methoxy)quinazolin-4-yl)(methyl)amino)-N,2-dimethylbutanamide] | 12 nM | 5 nM | 4 nM | 3 nM | 60 nM | 3 nM
2 | COCCN(C(C)=O)C(=O)C1CCN(c2nc(OC[C@@]34CCCN3C[C@H](F)C4)nc3c(F)c(-c4ccc(F)c5sc(N)c(C#N)c45)c(Cl)cc23)CC1 [Example 305, N-acetyl-1-(7-(2-amino-3-cyano-7-fluorobenzo[b]thiophen-4-yl)-6-chloro-8-fluoro-2-(((2R,7aS)-2-fluorotetrahydro-1H-pyrrolizin-7a(5H)-yl)methoxy)quinazolin-4-yl)-N-(2-methoxyethyl)piperidine-4-carboxamide] | 21 nM | 12 nM | 17 nM | 19 nM | 78 nM | 21 nM
3 | CN(C(=O)CCCN(C)c1nc(OC[C@@]23CCCN2C[C@H](F)C3)nc2c(F)c(-c3ccc(F)c4sc(N)c(C#N)c34)c(Cl)cc12)C(=O)c1cnn(C)c1 [Example 306, N-(4-((7-(2-amino-3-cyano-7-fluorobenzo[b]thiophen-4-yl)-6-chloro-8-fluoro-2-(((2R,7aS)-2-fluorotetrahydro-1H-pyrrolizin-7a(5H)-yl)methoxy)quinazolin-4-yl)(methyl)amino)butanoyl)-N, 1-dimethyl-1H-pyrazole-4-carboxamide] | 10 nM | 5 nM | 7 nM | 45 nM | 134 nM | 92 nM
4 | COCC(=O)N(C)C(=O)CCCN(C)c1nc(OC[C@@]23CCCN2C[C@H](F)C3)nc2c(F)c(-c3ccc(F)c4sc(N)c(C#N)c34)c(Cl)cc12 [Example 307, 4-((7-(2-amino-3-cyano-7-fluorobenzo[b]thiophen-4-yl)-6-chloro-8-fluoro-2-(((2R,7aS)-2-fluorotetrahydro-1H-pyrrolizin-7a(5H)-yl)methoxy)quinazolin-4-yl)(methyl)amino)-N-(2-methoxyacetyl)-N-methylbutanamide] | 8 nM | 3 nM | 2 nM | 15 nM | 70 nM | 5 nM
5 | Cc1ccn(C(=O)CCNc2cc(O[C@@H](C)[C@@H]3CCCN3C)nc(-c3noc([C@@]4(C)CCCc5sc(N)c(C#N)c54)n3)n2)n1 [Example 318, (S)-2-amino-4-methyl-4-(3-(4-((3-(3-methyl-1H-pyrazol-1-yl)-3-oxopropyl)amino)-6-((S)-1-((S)-1-methylpyrrolidin-2-yl)ethoxy)pyrimidin-2-yl)-1,2,4-oxadiazol-5-yl)-4,5,6,7-tetrahydrobenzo[b]thiophene-3-carbonitrile] | 12 nM | 2 nM | 3 nM | 908 nM | 801 nM | 17 nM
6 | CC(=O)N(C)C(=O)CCCN(C)c1cc(O[C@@H](C)[C@@H]2CCCN2C)nc(-c2cc([C@]3(C)CCCc4sc(N)c(C#N)c43)sn2)n1 [Example 319, N-acetyl-4-((2-(5-((R)-2-amino-3-cyano-4-methyl-4,5,6,7-tetrahydrobenzo[b]thiophen-4-yl)isothiazol-3-yl)-6-((S)-1-((S)-1-methylpyrrolidin-2-yl)ethoxy)pyrimidin-4-yl)(methyl)amino)-N-methylbutanamide] | > 100000 nM | > 100000 nM | > 100000 nM | > 10000 nM | > 10000 nM | > 10000 nM
7 | Cc1ccn(C(=O)CCN(C)c2cc(O[C@@H](C)[C@@H]3CCCN3C)nc(-c3noc([C@]4(C)CCCc5sc(N)c(C#N)c54)n3)n2)n1 [Example 320, (R)-2-amino-4-methyl-4-(3-(4-(methyl (3-(3-methyl-1H-pyrazol-1-yl)-3-oxopropyl)amino)-6-((S)-1-((S)-1-methylpyrrolidin-2-yl)ethoxy)pyrimidin-2-yl)-1,2,4-oxadiazol-5-yl)-4,5,6,7-tetrahydrobenzo[b]thiophene-3-carbonitrile] | 264 nM | 131 nM | 179 nM | > 10000 nM | > 10000 nM | 621 nM
8 | Cc1ccn(C(=O)CCNc2cc(-c3noc4c3CCC[C@@]43CCCc4sc(N)c(C#N)c43)nc(N3CCNC[C@@H]3C)n2)n1 [Example 321, (S)-2-amino-3′-(6-((3-(3-methyl-1H-pyrazol-1-yl)-3-oxopropyl)amino)-2-((S)-2-methylpiperazin-1-yl)pyrimidin-4-yl)-5′,6,6′,7-tetrahydro-4′H,5H-spiro[benzo[b]thiophene-4,7′-benzo[d]isoxazole]-3-carbonitrile] | 28 nM | 14 nM | 21 nM | 1060 nM | 861 nM | 192 nM
9 | Cc1ccn(C(=O)CCCN(C)c2cc(O[C@@H](C)[C@@H]3CCCN3C)nc(-c3noc([C@@]4(C)CCCc5sc(N)c(C#N)c54)n3)n2)n1 [Example 322, (S)-2-amino-4-methyl-4-(3-(4-(methyl (4-(3-methyl-1H-pyrazol-1-yl)-4-oxobutyl)amino)-6-((S)-1-((S)-1-methylpyrrolidin-2-yl)ethoxy)pyrimidin-2-yl)-1,2,4-oxadiazol-5-yl)-4,5,6,7-tetrahydrobenzo[b]thiophene-3-carbonitrile] | 525 nM | 10 nM | 20 nM | 9590 nM | 7310 nM | 96 nM
10 | Cc1ccn(C(=O)CCCN(C)c2cc(O[C@@H](C)[C@@H]3CCCN3C)nc(-c3cc([C@]4(C)CCCc5sc(N)c(C#N)c54)sn3)n2)n1 [Example 323, (R)-2-amino-4-methyl-4-(3-(4-(methyl (4-(3-methyl-1H-pyrazol-1-yl)-4-oxobutyl)amino)-6-((S)-1-((S)-1-methylpyrrolidin-2-yl)ethoxy)pyrimidin-2-yl)isothiazol-5-yl)-4,5,6,7-tetrahydrobenzo[b]thiophene-3-carbonitrile] | 346 nM | 17 nM | 26 nM | 3330 nM | 1860 nM | 140 nM
11 | Cc1ccn(C(=O)CCCNc2cc(O[C@@H](C)[C@@H]3CCCN3C)nc(-c3noc([C@]4(C)CCCc5sc(N)c(C#N)c54)n3)n2)n1 [Example 324, (R)-2-amino-4-methyl-4-(3-(4-((4-(3-methyl-1H-pyrazol-1-yl)-4-oxobutyl)amino)-6-((S)-1-((S)-1-methylpyrrolidin-2-yl)ethoxy)pyrimidin-2-yl)-1,2,4-oxadiazol-5-yl)-4,5,6,7-tetrahydrobenzo[b]thiophene-3-carbonitrile] | 19 nM | < 2 nM | < 2 nM | 262 nM | 651 nM | 9 nM
